In article PMC13492380, “Dissecting Structural and Functional Determinants of Microtubules Stabilization through Guided Chemical Modulation” (Journal of Medicinal Chemistry, 2026):
Read-outs that look alike come from different tables or passages of the source.

Columns and labels:
[1] = test system: HeLa cells; experiment: MTT cytotoxicity assay, HeLa; format: cell-based; conditions: Homo sapiens, 48 h, read-out: Cytotoxicity IC50 HeLa
Procedure: Antiproliferative assays were performed as described. […] Then, increasing concentrations of drugs were added and incubated for 48 h prior to the reaction with the MTT solution. IC50 values were obtained by fitting the experimental data (absorbance at 570/690 nm) to a four-parameter logistic curve using SigmaPlot 14.5 software package (Systat Software, Inc., San Jose, CA, USA) and IC50 values were expressed as mean ± SEM from three independent experiments, each performed in duplicate.

[2] = test system: A549 cells; experiment: Indirect immunofluorescence of the microtubular network; format: cell-based, human; conditions: 24 h
From the text: We first assessed their impact on the cellular microtubular network. […] These defects manifested as multinucleated cells resulting from multiple abnormal star-like spindles, leading to an aberrant arrangement of chromosomes. […] We then evaluated their ability to overcome intrinsic resistance mechanisms using cell lines overexpressing βIII-tubulin isotype (HeLaβIII) or P-glycoprotein, PgP, (Kb-V1), compared to parental HeLa and Kb-3.1 cells.
2 Cellular and biochemical characterization of compounds 1a and 1b. (A) Effects of compounds on A549 cells. […] Top row panels are control cells treated with 0.5% DMSO (vehicle), with the usual and evenly distributed microtubular network in interphase and normal bipolar spindle with chromosomes aligned at the metaphase plate during mitosis. […] All images are shown at the same magnification; scale bar 10 μm. […] (C) Van’t Hoff Plot of the equilibrium binding constants of compounds 1a and 1b at the assayed temperatures. Error bars represent the standard error of the measurement.
DMSO was always less than 0.5% v/v. PEG and Triton X-100 were applied to cells prior the fixation with 3.7% formaldehyde, as previously described. Cells were incubated with a DM1A mouse monoclonal antibody (Sigma-Aldrich) reacting with α-tubulin. […] Images were recorded using a Leica DFC360 FX CCD camera.

[3] = test system: human Kif5B 1–905-EGFP on stabilized MTs; experiment: Single-molecule kinesin-1 motility assay on stabilized MTs (TIRF); format: biochemical
Procedure: To gain mechanistic insight into the kinesin phenotype observed in cells, we reduced system complexity using an in vitro reconstitution assay. Specifically, we performed time-lapse imaging using total internal reflection fluorescence (TIRF) microscopy with immobilized and stabilized MTs in a flow chamber, into which we introduced 1.08 nM kinesin-1 motors (constitutively active human Kif5B 1–905-EGFP). We then analyzed individual kinesin movements to quantify landing rates (number of motors per unit MT length per unit time), run lengths, interaction times, and average velocities (Figure D, Movies S12–S15). In contrast to our experiments in cells, here we evaluated each structural modification individually to dissect the effects of MT lattice parameters on kinesin-1 mediated transport.
Total Internal Reflection Fluorescence microscopy experiments were performed on an inverted widefield microscope Nikon-Ti2 E, equipped with a motorized XY-stage, a perfect focus system, Apo TIRF 60× oil NA 1.49 objective and PRIME BSY (Teledyne Photometrics) camera. MTs were visualized using Interference Reflection microscopy (IRM) and fluorescently labeled proteins were visualized sequentially by switching between microscope filter cubes for GFP and mCherry channels. The microscopes were controlled using NIS Elements software (Nikon). All experiments were conducted at RT.
Microscopy chambers were prepared from two sandwiched silanized glass coverslips (22 × 22 mm^2 and 18 × 18 mm^2) attached through parafilm strips (heated for 15–20 s at 60 °C and gently pressed together) to form ∼2.5 mm wide parallel flow channels. Prior to the chamber assembly, the coverslips were washed in 3 M KOH, cleaned using Zepto plasma cleaner (Diener electronic) and silanized with hexamethyldisilazane. Flow channels were first incubated with 40 μgml^–1 antibiotin antibodies (Sigma, B3640) in PBS for 10 min, followed by incubation with 1% Pluronic F127 (Sigma-Aldrich, P2443) in PBS for at least 1 h. F127 was washed with BRB80 (80 mM PIPES, 1 mM EGTA, 1 mM MgCl2, pH 6.9).
Porcine brain tubulin was isolated using the high-molarity PIPES procedure then mixed with Biotin labeled tubulin (Cytoskeleton Inc., T333P) in 1:49 ratio. All MTs were polymerized using 2% biotin-labeled tubulin. […] Polymerized MTs were centrifuged for 30 min at 18,000g in a Microfuge 18 Centrifuge (Beckman Coulter’s). […] Drug stabilized preassembly MTs (polymerized in the presence of drugs and GTP, stored and imaged in presence of drug) were polymerized from 4 mg mL^–1 biotinylated tubulin for 30 min at 37 °C in BRB80 supplemented with 4 mM MgCl2, 40 μM drug of interest in 5% DMSO, and 1 mM GTP. Polymerized MTs were centrifuged for 30 min at 18,000g in a Microfuge 18 Centrifuge (Beckman Coulter’s). […] GMPCPP stabilized MTs (GMPCPP polymerized) were assembled from 4 mg mL^–1 biotinylated tubulin for 2 h at 37 °C in BRB80 supplemented with 1 mM MgCl2 and 1 mM GMPCPP (Jena Bioscience, NU-405). Polymerized MTs were centrifuged for 30 min at 18,000g in a Microfuge 18 Centrifuge (Beckman Coulter’s) and pellets were resuspended and kept in BRB80.
Stabilized MTs were flushed into the channel and incubated for 15–30 s to allow for surface attachment. Unbound MTs were removed by washing with BRB80 supplemented with 10 μM of drug. Prior the experiment, the solution was exchanged by motility buffer, MB (BRB80 containing 10 mM DTT, 20 mM D-glucose, 0.1% Tween-20, 0.5 mg/mL casein, 1 mM Mg-ATP, 0.02 mg/mL catalase, 0.22 mg/mL glucose oxidase, 10 μM drug). Subsequently, a solution containing either 1.08 nM Kif5b-EGFP or 10/40 nM mCherry-Tau in MB was introduced into the chamber.
To assess kinesin-EGFP motility along MTs, an IRM image (50 ms exposure) was acquired followed by a 1 min video using 488 nm laser excitation (20% laser intensity, 300 ms exposure) with no delay. Two to three videos were recorded from different fields within the same channel and at least 2 channels were measure for each experimental condition. […]

| Structure (SMILES) | IC50 [1] | selected concentration showing equivalent effect on microtubular network and mitotic spindles [2] | kinesin-1 landing rate on stabilized MTs ([3]; 1.08 nM Kif5b-EGFP, 10 μM drug) | kinesin-1 time bound on stabilized MTs ([3]; 1.08 nM Kif5b-EGFP, 10 μM drug) | kinesin-1 velocity on stabilized MTs ([3]; 1.08 nM Kif5b-EGFP, 10 μM drug) | IC50 ([1]; MTT, mean ± SEM) | kinesin-1 run length on stabilized MTs ([3]; compared to native-like MTs) |
| --- | --- | --- | --- | --- | --- | --- | --- |
| CC(=O)OC1C(=O)C2(C)C(OC(=O)CCCCC(=O)OC3CCc4ccccc43)CC3OCC3(OC(C)=O)C2C(OC(=O)c2ccccc2)C2(O)CC(OC(=O)C(O)C(NC(=O)c3ccccc3)c3ccccc3)C(C)=C1C2(C)C (centres unmarked) [1a, 7-O-(6″-O-(2‴,3‴-Dihydroinden-1‴-yl)hexanedioyl) Paclitaxel] | 0.18 ± 0.02 µM | 2 µM | increased on 1a compared with 1b | increased the time bound | decreased the velocity | – | – |
| COc1ccc2c(c1)CC(NC(=O)CCCCCCCC(=O)OC1CC3OCC3(OC(C)=O)C3C(OC(=O)c4ccccc4)C4(O)CC(OC(=O)C(O)C(NC(=O)c5ccccc5)c5ccccc5)C(C)=C(C(OC(C)=O)C(=O)C13C)C4(C)C)CC2 [1b, 7-O-((S)-9″-(7‴-Methoxy-1‴,2‴,3‴,4‴-tetrahydronaphthalen-2‴-yl)amino) −9″-oxononanoyl) Paclitaxel] | – | 1 µM | – | – | – | 0.1 ± 0.02 µM | – |
| CC(=O)O[C@H]1C(=O)[C@@]2(C)[C@H]([C@H](OC(=O)c3ccccc3)[C@]3(O)C[C@H](OC(=O)[C@H](O)[C@@H](NC(=O)c4ccccc4)c4ccccc4)C(C)=C1C3(C)C)[C@]1(OC(C)=O)CO[C@@H]1C[C@@H]2O [PTX, Paclitaxel] | – | – | – | – | – | – | reduce run length |
